Source: patent publication US20250340529A1, “Heterocyclic Compounds as Immunomodulators of PD-L1 Interactions” (Ascletis BioScience Co., Ltd, priority 2021, published 2025)

Assays:
PD-L1/CHO-K1 cells = PD-L1/CHO-K1 cells (Homo sapiens (Human), UniProt Q9NZQ7); assay: PD-L1 internalization (FACS, PD-L1/CHO-K1 cells); type: cell-based; details: % activation of PD-L1 internalization = 1 − PD-L1 signal; 17 hours incubation
Method: Day 1. Seeding cells: Digest the PD-L1/CHO-K1 cells by trypsin in the flask, then counting the cell number and diluted to 1×10^5 cells/ml. Seeding cells to 6 well plate (Corning, #3516), 2 mL/well. The plates were incubated at 37° C., […] incubator for 24 hours.
Day 2. Preparing compounds and treated cells: Dilute GLC01-258 from 15 mM to 0.5 mM by using DMSO, and 15 mM compound were serial diluted from 15 mM˜15 nM by DMSO, Then 500 times dilute the compounds by using assay buffer. Prepare 0.2% DMSO in assay buffer used for Vehicle control and low control. Take out the plates, aspirated the medium and thrown away. Adding 2 mL of the diluted compounds, vehicle control and low control to corresponding wells. Then incubated the plates for 17 hours at 37° C., 5% CO2 incubator.
Day 3. Preparing samples for FACS: After 17 hours incubation, discarded medium and washed by the PBS. Cells in each well were Digested by trypsin. Centrifuge and discard the supernatant, then wash the cells by DPBS (Ca^2+, Mg^2+ free) for twice. 10 fold dilute the antibody (PE-conjugated mouse anti-human CD274) by DPBS, then adding the staining solution to compounds treated samples and vehicle control sample. The low control only add DPBS without antibody. Incubate the plates at room temperature for 20 minutes and protect from light. After 20 minutes, wash the samples by DPBS for twice. Then centrifuge and discard the supernatant. Resuspend cells by 300 uL DPBS and transfer the samples to 5 mL Polystryrene Round-Bottom Tube (Falcon, #352054), then tested by BD FACSCanto. […].
Set the PD-L1 signal of vehicle control as 100%, PD-L1 signal of Low control as 0%. Then calculate the compound treated samples' PD-L1 signal
0% PD-L1 signal: Low control which stained without anti-CD274
100% PD-L1 Signal: vehicle control which stained with anti-CD274
The % activation of PD-L1 Internalization=1−PD-L1 signal of compound.

PD-1/PD-L1 = PD-1/PD-L1 (Homo sapiens (Human), UniProt Q9NZQ7); assay: PD-1/PD-L1 Homogeneous Time-Resolved Fluorescence (HTRF) binding assay; details: 3 nM PD1, 10 nM PD-L1, 25° C., PBS pH 7.4
Method: PD-1/PD-L1 Homogeneous Time-Resolved Fluorescence (HTRF) Binding Assay
The assays were conducted in a standard black 384-well polystyrene plate with a final volume of 20 μL. Inhibitors were first serially diluted in DMSO and then added to the plate wells before the addition of other reaction components. The final concentration of DMSO in the assay was 1%. The assays were carried out at 25° C. in the PBS buffer (pH 7.4) with 0.05% Tween-20 and 0.1% BSA. Recombinant human PD-L1 protein (19-238) with a Histag at the C-terminus was purchased from AcroBiosystems (PD1-H5229). Recombinant human PD-1 protein (25-167) with Fe tag at the C-terminus was also purchased from AcroBiosystems (PD1-H5257). PD-L1 and PD-1 proteins were diluted in the assay buffer and 10 μL was added to the plate well. Plates were centrifuged and proteins were preincubated with inhibitors for 40 minutes. The incubation was followed by the addition of 10 μL of HTRF detection buffer supplemented with Europium cryptate-labeled anti-human IgG (PerkinElmer-AD0212) specific for Fe and anti-His antibody conjugated to SureLight®-Allophycocyanin (APC, PerkinElmer-AD0059H). After centrifugation, the plate was incubated at 25° C. for 60 min. before reading on a PHERAstar FS plate reader (665 nm/620 nm ratio). Final concentrations in the assay were—3 nM PD1, 10 nM PD-L1, 1 nM europium anti-human IgG and 20 nM anti-His-Allophycocyanin. IC50 determination was performed by fitting the curve of percent control activity versus the log of the inhibitor concentration.

PD-1/PD-L1, sequence (Q9NZQ7 19-238): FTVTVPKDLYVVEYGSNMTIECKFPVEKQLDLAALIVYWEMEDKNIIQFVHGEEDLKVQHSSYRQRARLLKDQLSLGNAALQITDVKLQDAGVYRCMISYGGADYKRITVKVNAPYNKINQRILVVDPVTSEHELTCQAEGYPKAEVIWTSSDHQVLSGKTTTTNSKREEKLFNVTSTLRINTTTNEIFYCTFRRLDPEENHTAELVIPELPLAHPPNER
PD-L1/CHO-K1 cells, sequence (Q9NZQ7 19-290): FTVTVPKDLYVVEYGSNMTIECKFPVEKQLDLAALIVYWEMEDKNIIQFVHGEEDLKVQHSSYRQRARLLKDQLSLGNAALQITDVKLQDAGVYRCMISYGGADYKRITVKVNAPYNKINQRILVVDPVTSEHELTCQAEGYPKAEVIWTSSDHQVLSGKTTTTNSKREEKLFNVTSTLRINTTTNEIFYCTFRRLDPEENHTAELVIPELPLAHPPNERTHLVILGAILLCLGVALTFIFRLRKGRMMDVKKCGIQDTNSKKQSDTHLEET

SMILES | Internalization (PD-L1/CHO-K1 cells) [%] | IC50 (PD-1/PD-L1) [nM]
O=C(O)CCNCCCN1C(=O)COc2cc(-c3cccc(-c4cccc(-c5ccc6c(c5)OCC(=O)N6CCCNCCC(=O)O)c4Cl)c3Cl)ccc21 [Compound 480] | 5.70 | 5.48
O=C1CC[C@@H](CN2C(=O)COc3cc(-c4cccc(-c5cccc(-c6ccc7c(c6)OCC(=O)N7C[C@@H]6CCC(=O)N6)c5Cl)c4Cl)ccc32)N1 [Compound 338] | 6.80 | 1.46
O=C(O)[C@H](CO)NCCN1C(=O)COc2cc(-c3cccc(-c4cccc(-c5cc(F)c6c(c5)OCC(=O)N6CCN[C@@H](CO)C(=O)O)c4Cl)c3Cl)cc(F)c21 [Compound 561] | 5.30 | 8.95
Cl.O=C1CC[C@@H](CN2C(=O)COc3cc(-c4cccc(-c5cccc(-c6ccc7c(c6)OCC(=O)N7C[C@@H]6CCCN6)c5Cl)c4Cl)ccc32)N1 [Compound 517] | 22.80 | 7.46
O=C1CC[C@@H](CN2C(=O)COc3cc(-c4cccc(-c5cccc(-c6cc7c(cc6F)N(C[C@@H]6CCC(=O)N6)C(=O)CO7)c5Cl)c4Cl)c(F)cc32)N1 [Compound 388] | 6.10 | 1.1
CN1CC(=O)N(C[C@@H]2CCC(=O)N2)c2ccc(-c3cccc(-c4cccc(-c5ccc6c(c5)N(C)CC(=O)N6C[C@@H]5CCC(=O)N5)c4Cl)c3Cl)cc21 [Compound 402] | 2.40 | 1.98
O=C(O)[C@@H](O)CNCCN1C(=O)COc2cc(-c3cccc(-c4cccc(-c5ccc6c(c5)OCC(=O)N6CCNC[C@H](O)C(=O)O)c4Cl)c3Cl)ccc21 [Compound 553] | 9.40 | 
O=C(O)[C@H](CO)NCCN1C(=O)COc2cc(-c3cccc(-c4cccc(-c5ccc6c(c5)OCC(=O)N6CCN[C@@H](CO)C(=O)O)c4F)c3F)ccc21 [Compound 613, (2S,2'S)-2,2′-((((2,2′-difluoro-[1,1′-biphenyl]-3,3′-diyl)bis(3-oxo-2,3-dihydro-4H-benzo[b][1,4]oxazine-7,4-diyl))bis(ethane-2,1-diyl))bis(azanediyl))bis(3-hydroxypropanoic acid)] | 4.80 | 
O=C(O)CCNCCN1C(=O)COc2cc(-c3cccc(-c4cccc(-c5ccc6c(c5)OCC(=O)N6CCN5CC[C@H](O)C5)c4Cl)c3Cl)ccc21 [Compound 491] |  | 5.22
Nc1cc2c(cc1-c1cccc(-c3cccc(-c4cc5c(cc4N)N(C[C@@H]4CCC(=O)N4)C(=O)CO5)c3Cl)c1Cl)OCC(=O)N2C[C@@H]1CCC(=O)N1 [Compound 354] |  | 2180
NC(=O)C[C@H](NCCN1C(=O)COc2cc(-c3cccc(-c4cccc(-c5ccc6c(c5)OCC(=O)N6CCN[C@@H](CC(N)=O)C(=O)O)c4Cl)c3Cl)ccc21)C(=O)O [Compound 570] |  | 10.9
CC1(C)Cc2cc(-c3cccc(-c4cccc(-c5cnc6c(c5)OC(C)(C)C(=O)N6C[C@@H]5CCC(=O)N5)c4Cl)c3Cl)cnc2N(C[C@@H]2CCC(=O)N2)C1=O [Compound 382] |  | ≥ 3000
CC(=O)N1CCC(N2C(=O)COc3cc(-c4cccc(-c5cccc(-c6ccc7c(c6)OCC(=O)N7C6CCN(C(C)=O)CC6)c5Cl)c4Cl)ccc32)CC1 [Compound 408] |  | 571
O=C1COc2cc(-c3cccc(-c4cccc(-c5ccc6c(c5)OCC(=O)N6C[C@@H]5CCC(=O)N5)c4Cl)c3Cl)ccc2N1 [Compound 429, (S)-7-(2,2′-dichloro-3′-(3-oxo-3,4-dihydro-2H-benzo[b][1,4]oxazin-7-yl)-[1,1′-biphenyl]-3-yl)-4-((5-oxopyrrolidin-2-yl)methyl)-2H-benzo[b][1,4]oxazin-3(4H)-one] |  | 20.8
O=C1CC[C@@H](CN2C(=O)CCc3cc(-c4cccc(-c5cccc(-c6ccc7c(c6)CCC(=O)N7C[C@@H]6CCC(=O)N6)c5Cl)c4Cl)ccc32)N1 [Compound 281, 6,6′-(2,2′-dichloro-[1,1′-biphenyl]-3,3′-diyl)bis(1-(((S)-5-oxopyrrolidin-2-yl)methyl)-3,4-dihydroquinolin-2(1H)-one)] |  | 26.7
